Assay results taken from patent US20250114389A1, “NUCLEOSIDES AND NUCLEOTIDES ANALOGS AS ANTIVIRAL AGENTS” (Emory University, priority 2021, published 2025).
pEC50: −log10 of the molar value. Like-named read-outs stand apart in the source and are kept apart here.

Experiments:
Assay type in all cases: cell-based
SARS-CoV2 variant Beta [1] = assay: microbe, parasite or virus in culture
SARS-CoV2 variant Delta [2] = assay: microbe, parasite or virus in culture
SARS-CoV2 Lineage A (Wa) [3] = assay: Antiviral activity against SARS-CoV2 Lineage A (Wa) in Calu3
SARS-CoV2 variant Alpha [4] = assay: microbe, parasite or virus in culture
SARS-CoV2 variant Alpha [5] = assay: microbe, parasite or virus in culture; remark: listed apart in the source
SARS-CoV2 Lineage A (Wa) [6] = assay: Antiviral activity against SARS-CoV2 Lineage A (Wa) in Vero
SARS-CoV2 variant Gamma [7] = assay: microbe, parasite or virus in culture
SARS-CoV2 variant Beta [8] = assay: microbe, parasite or virus in culture; remark: listed apart in the source
SARS-CoV2 variant Delta [9] = assay: microbe, parasite or virus in culture; remark: listed apart in the source
SARS-CoV2 variant Gamma [10] = assay: microbe, parasite or virus in culture; remark: listed apart in the source
[11] = test system: SARS-CoV2 Lineage A (Eng); assay: Antiviral activity against SARS-CoV2 Lineage A (Eng) in Calu3
[12] = Severe acute respiratory syndrome coronavirus 2, Vero, read-out: Antiviral Activity Against SARS-CoV2 Variants in Vero, first value column
[13] = Severe acute respiratory syndrome coronavirus 2, Calu-3, Calu3, read-out: Antiviral Activity Against SARS-CoV2 Variants in Calu3, first value column
[14] = Severe acute respiratory syndrome coronavirus 2, Calu-3, read-out: Antiviral Activity Against SARS-CoV2 Variants in Calu3, first value column

With `N#C[C@@]1(n2ccc(N)nc2=O)O[C@H](CO)[C@@H](O)[C@H]1O` [Compound A, (2R,3R,4S,5R)-2-(4-amino-2-oxopyrimidin-1(2H)-yl)-3,4-dihydroxy-5-(hydroxymethyl)-tetrahydrofuran-2-carbonitrile] as the molecule, how does the “Antiviral Activity Against SARS-CoV2 Variants in Vero” value (SARS-CoV2 variant Beta [1]) read?
The value was 1.4 µM.

What about the pEC50 (SARS-CoV2 variant Beta [1]; [12]) of the same molecule?
The pEC50 was 6.52.

And the “Antiviral Activity Against SARS-CoV2 Variants in Calu3, second value column” value (SARS-CoV2 variant Delta [2])?
The value was 0.1 µM.

And the pEC50 (SARS-CoV2 variant Delta [2]; [13])?
Its pEC50 is 7.40.

And the “Antiviral Activity Against SARS-CoV2 Variants in Calu3, second value column” value (SARS-CoV2 Lineage A (Wa) [3])?
The value was 4.5 µM.

And the pEC50 (SARS-CoV2 Lineage A (Wa) [3]; [14])?
The pEC50 was 5.77.

What about the “Antiviral Activity Against SARS-CoV2 Variants in Calu3, second value column” value (SARS-CoV2 variant Alpha [4]) of the same molecule?
Its value is 0.4 µM.

And the pEC50 (SARS-CoV2 variant Alpha [4]; [13])?
The pEC50 was 7.00.

What about the “Antiviral Activity Against SARS-CoV2 Variants in Vero” value (SARS-CoV2 variant Alpha [5]) of the same molecule?
The value was 1.2 µM.

And the pEC50 (SARS-CoV2 variant Alpha [5]; [12])?
The pEC50 was 6.10.

And the “Antiviral Activity Against SARS-CoV2 Variants in Vero” value (SARS-CoV2 Lineage A (Wa) [6])?
The value was 0.4 µM.

And the pEC50 (SARS-CoV2 Lineage A (Wa) [6]; Severe acute respiratory syndrome coronavirus 2, read-out: Antiviral Activity Against SARS-CoV2 Variants in Vero, first value column)?
The pEC50 was 6.70.

And the “Antiviral Activity Against SARS-CoV2 Variants in Calu3, second value column” value (SARS-CoV2 variant Gamma [7])?
Its value is 1.2 µM.

And the pEC50 (SARS-CoV2 variant Gamma [7]; [13])?
Its pEC50 is 5.96.

What about the “Antiviral Activity Against SARS-CoV2 Variants in Calu3, second value column” value (SARS-CoV2 variant Beta [8]) of the same molecule?
The value was 1.2 µM.

What about the pEC50 (SARS-CoV2 variant Beta [8]; [13]) of the same molecule?
The pEC50 was 6.52.

What about the “Antiviral Activity Against SARS-CoV2 Variants in Vero” value (SARS-CoV2 variant Delta [9]) of the same molecule?
Its value is 0.3 µM.

What about the pEC50 (SARS-CoV2 variant Delta [9]; [12]) of the same molecule?
Its pEC50 is 6.70.

What about the “Antiviral Activity Against SARS-CoV2 Variants in Vero” value (SARS-CoV2 variant Gamma [10]) of the same molecule?
The value was 1.0 µM.

And the pEC50 (SARS-CoV2 variant Gamma [10]; [12])?
Its pEC50 is 6.10.

And the “Antiviral Activity Against SARS-CoV2 Variants in Calu3, second value column” value [11]?
The value was 3.6 µM.

What about the pEC50 [11, 14] of the same molecule?
Its pEC50 is 5.74.

For `CCC(CC)COC(=O)[C@H](C)N[P@](=O)(OC[C@H]1O[C@@](C#N)(c2ccc3c(N)ncnn23)[C@H](O)[C@@H]1O)Oc1ccccc1` [Remdesivir, reference compound], which “Antiviral Activity Against SARS-CoV2 Variants in Vero” value (SARS-CoV2 variant Beta [1]) is on record?
The value was 1.6 µM.

What about the “Antiviral Activity Against SARS-CoV2 Variants in Calu3, second value column” value (SARS-CoV2 variant Delta [2]) of the same molecule?
Its value is 0.3 µM.

And the “Antiviral Activity Against SARS-CoV2 Variants in Calu3, second value column” value (SARS-CoV2 Lineage A (Wa) [3])?
The value was 0.3 µM.

And the “Antiviral Activity Against SARS-CoV2 Variants in Calu3, second value column” value (SARS-CoV2 variant Alpha [4])?
The value was 0.4 µM.

And the “Antiviral Activity Against SARS-CoV2 Variants in Vero” value (SARS-CoV2 variant Alpha [5])?
The value was 0.6 µM.

What about the “Antiviral Activity Against SARS-CoV2 Variants in Vero” value (SARS-CoV2 Lineage A (Wa) [6]) of the same molecule?
The value was 2.9 µM.

And the “Antiviral Activity Against SARS-CoV2 Variants in Calu3, second value column” value (SARS-CoV2 variant Beta [8])?
The value was 0.4 µM.

And the “Antiviral Activity Against SARS-CoV2 Variants in Vero” value (SARS-CoV2 variant Delta [9])?
The value was 2.1 µM.

And the “Antiviral Activity Against SARS-CoV2 Variants in Vero” value (SARS-CoV2 variant Gamma [10])?
The value was 2.2 µM.

What about the “Antiviral Activity Against SARS-CoV2 Variants in Calu3, second value column” value [11] of the same molecule?
The value was 2.3 µM.
